Experiments:
Experiment in all cases: relative viability (nuclei count vs DMSO), 5 days (fraction); higher = more cells survive
[1] = compound: CC(O)(CS(=O)(=O)c1ccc(F)cc1)C(=O)Nc1ccc(C#N)c(C(F)(F)F)c1 [Bicalutamide] + CC(=O)Nc1cccc(-n2c(=O)n(C3CC3)c(=O)c3c(Nc4ccc(I)cc4F)n(C)c(=O)c(C)c32)c1 [Trametinib] (partner 0.02 µM)
Outline: (§1)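 Relative viability is defined as nuclei in treated wells over nuclei in vehicle wells. Duplicate plates were run and medians reported. Lung cancer cell lines in 1536-well plates were dosed by pin tool one day after seeding, with one drug or with a fixed anchor-drug dose plus five library-drug doses (not always all listed) in √10 steps, and nuclei were counted after 5 days.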

Bicalutamide + Foretinib = compound: CC(O)(CS(=O)(=O)c1ccc(F)cc1)C(=O)Nc1ccc(C#N)c(C(F)(F)F)c1 [Bicalutamide] + COc1cc2c(Oc3ccc(NC(=O)C4(C(=O)Nc5ccc(F)cc5)CC4)cc3F)ccnc2cc1OCCCN1CCOCC1 [Foretinib] (partner 0.25 µM)
Outline: as §1

[2] = compound: C(C(=O)C(=O)O)Br [Bromopyruvate] + Cc1nc(Nc2ncc(C(=O)Nc3c(C)cccc3Cl)s2)cc(N2CCN(CCO)CC2)n1 [Dasatinib] (partner 0.075 µM)
Outline: as §1

[3] = compound: CC(O)(CS(=O)(=O)c1ccc(F)cc1)C(=O)Nc1ccc(C#N)c(C(F)(F)F)c1 [Bicalutamide] + CS(=O)(=O)N1CCN(Cc2cc3nc(-c4cccc5[nH]ncc45)nc(N4CCOCC4)c3s2)CC1 [Pictilisib] (partner 1 µM)
Outline: as §1

Cell Line	relative viability ([1]; first compound 0.08 µM)	relative viability ([1]; first compound 0.253 µM)	relative viability ([1]; first compound 0.8 µM)	relative viability ([1]; first compound 2.53 µM)	relative viability (Bicalutamide + Foretinib; first compound 0.08 µM)	relative viability (Bicalutamide + Foretinib; first compound 0.253 µM)	relative viability (Bicalutamide + Foretinib; first compound 0.8 µM)	relative viability (Bicalutamide + Foretinib; first compound 2.53 µM)	relative viability ([2]; first compound 1 µM)	relative viability ([2]; first compound 3.162 µM)	relative viability ([2]; first compound 10 µM)	relative viability ([2]; first compound 31.62 µM)	relative viability ([2]; first compound 100 µM)	relative viability ([3]; first compound 0.08 µM)	relative viability ([3]; first compound 0.253 µM)	relative viability ([3]; first compound 0.8 µM)	relative viability ([3]; first compound 2.53 µM)
NCI-H2009	0.296	0.225	0.296	0.248	1.35	1.23	1.19	1.17	0.281	0.297	0.279	0.243	0.202	1.2	0.944	1.06	0.737
SK-LU-1	0.52	0.565	0.576	0.443	0.99	0.785	1.01	0.78	0.171	0.153	0.19	0.171	0.165	0.6	0.503	0.715	0.59
NCI-H2347	0.283	0.287	0.307	0.249	1.26	1.35	1.34	1.04	0.331	0.297	0.322	0.292	0.278	0.735	0.728	0.876	0.632
HCC-366	0.388	0.231	0.454	0.284	0.937	0.842	0.919	0.995	0.614	0.672	1.01	0.643	0.585	0.124	0.101	0.147	0.0426
EMC-BAC-2	0.911	0.771	0.891	0.728	1.02	0.867	1.02	0.928	0.317	0.34	0.449	0.297	0.334	0.517	0.531	0.527	0.456
NCI-H3122	0.202	0.241	0.225	0.258	1.02	0.9	0.996	1.01	0.936	0.871	1.22	0.765	0.882	0.665	0.645	0.676	0.652
NCI-H358	0.161	0.128	0.125	0.132	0.767	0.565	0.958	0.73	0.197	0.149	0.143	0.171	0.167	0.385	0.361	0.301	0.303
NCI-H1944	0.408	0.393	0.421	0.397	0.837	0.749	0.981	0.775	0.235	0.255	0.213	0.196	0.205	0.4	0.296	0.334	0.327
EPLC-272H	0.315	0.281	0.332	0.281	0.606	0.841	0.817	0.679	0.354	0.309	0.462	0.374	0.455	0.311	0.266	0.329	0.33
NCI-H1915	0.338	0.288	0.286	0.229	0.753	1.06	1.11	1.13	0.331	0.326	0.319	0.275	0.315	0.91	0.782	1	0.775
NCI-H647	0.482	0.429	0.721	0.414	1.08	1.16	1.23	1.14	0.156	0.218	0.215	0.187	0.169	0.358	0.348	0.643	0.339
NCI-H441	0.492	0.374	0.497	0.406	1.19	0.894	0.964	0.787	0.64	0.618	0.693	0.677	0.486	0.594	–	0.513	0.426
NCI-H23	0.418	0.317	0.434	0.399	0.905	0.876	1.01	0.965	0.721	0.794	1.1	0.775	1.07	0.476	0.446	0.633	0.378
NCI-H650	1.04	1.01	1.12	0.934	1.07	1.07	1.17	0.936	0.523	0.442	0.487	0.439	0.576	0.726	0.671	0.951	0.768
SK-MES-1	0.534	0.508	0.456	0.499	0.832	0.829	0.979	1.03	0.424	0.332	0.345	0.339	0.417	0.351	0.39	0.382	0.357
NCI-H2170	0.892	0.861	0.97	0.931	0.993	1	1.1	0.98	0.553	0.509	0.59	0.627	0.635	0.308	0.298	0.289	0.302
NCI-H2087	0.214	0.191	0.178	0.202	1.14	1.17	1.15	0.993	0.807	1	0.914	0.745	0.824	0.84	0.891	1.05	0.835
NCI-H838	0.553	0.419	0.661	0.293	0.994	0.963	1.08	0.928	0.325	0.277	0.208	0.302	0.264	0.589	0.415	0.524	0.324

Source: the supplement of paper PMC10307832
